Laboratory results as given in US11078171B2, “Non-ATP/catalytic site p38 mitogen activated protein kinase inhibitors” (University of Maryland, Baltimore, priority 2018, dated 2021).
Where two headings read alike, the source gives them in different places.

What was measured:
[1] = patients with Crohn's disease; cited from earlier work
p38β [2] = biological target: T1, p38β (Homo sapiens, UniProt Q15759); assay: DSF, binding to p38β
T1 construct: HA (N); made in house; host or cells: E. coli BL21
T1 sequence (Q15759 whole entry): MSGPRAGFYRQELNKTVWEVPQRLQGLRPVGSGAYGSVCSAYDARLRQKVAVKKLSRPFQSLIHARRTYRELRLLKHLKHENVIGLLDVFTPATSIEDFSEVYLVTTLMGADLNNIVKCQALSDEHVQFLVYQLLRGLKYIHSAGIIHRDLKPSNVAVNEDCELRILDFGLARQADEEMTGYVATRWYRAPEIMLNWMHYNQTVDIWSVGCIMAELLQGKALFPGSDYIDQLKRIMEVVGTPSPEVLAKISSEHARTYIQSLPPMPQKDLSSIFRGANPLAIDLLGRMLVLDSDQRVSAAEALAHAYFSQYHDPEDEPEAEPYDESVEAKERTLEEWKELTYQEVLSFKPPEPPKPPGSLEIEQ

HMVECL monolayers = assay: Endothelial permeability assay (10 kDa dextran flux), TNFα/hyperthermia; assay type: cell-based, human
Procedure: Endothelial permeability assay: Permeability of HMVECL monolayers was assessed by measuring transendothelial flux of 10 kDa dextran conjugated to Cascade blue fluorescent dye for 30 min at 37° C. in Matrigel-coated 3 μm pore size Transwell plates.
The capacity of UM60 and UM101 to stabilize endothelial barriers to macromolecules and neutrophils in TNFα- and hyperthermia-stressed HMVECL monolayers was tested (FIG. 2).

HMVECLs [3] = assay: IL-8-directed neutrophil transendothelial migration (TEM) assay; assay type: cell-based, human
Procedure: Neutrophil transendothelial migration (TEM) assay: Neutrophils were isolated from heparinized venous blood that was collected from healthy volunteers using a protocol approved by the University of Maryland Institutional Review Board and TEM of calcein-labeled neutrophils through HMVECLs was measured.

[4] = system: MK2 phosphorylation in anisomycin-stimulated HeLa cells; assay: Inhibition of substrate phosphorylation, phospho-MK2 immunoblot; assay type: cell-based, human; settings: 30 min pretreatment
Procedure: (§1) Inhibition of substrate phosphorylation: A functional analysis of UM101 to block p38-dependent phosphorylation of MK2 and Stat-1 was performed in HeLa cells. […] Cell extracts prepared in RIPA buffer containing protease and phosphatase inhibitors were resolved by SDS-PAGE, transferred to PVDF membrane, blocked with 5% nonfat dry milk, probed with primary antibodies against phosphorylated MK2 and Stat-1, and total p38α as a loading control. Bands were detected using secondary antibodies conjugated to infrared fluorophores and infrared fluorescence imaging (Odyssey; LICOR).

[5] = system: Stat-1 phosphorylation in anisomycin-stimulated HeLa cells; assay: Inhibition of substrate phosphorylation, phospho-Stat-1 immunoblot; assay type: cell-based, human; settings: 30 min pretreatment
Procedure: as §1

[6] = system: LPS/hyperthermia-induced ALI in mice; settings: for mice died within 24 h: 1000 μg i.p. 30 min prior to 50 μg LPS i.t./hyperthermia
[7] = system: LPS-induced acute lung injury in mice; assay: Mouse LPS acute lung injury model with UM101 analogues, total protein in lung lavage fluid (FIG. 9, FIG. 10); assay type: in vivo
Procedure: FIG. 9 illustrates that UM101 and analogues inhibit acute lung injury in a mouse model. Mice were pretreated i.p. with 1 mg of test compounds and then treated with […] LPS i.t. at 39° C. to induce inflammation. Lung injury was assessed by measuring total protein in the lung lavage fluid.
FIG. 10 illustrates that UM101 and analogues inhibit acute lung injury in a mouse model. All mice received 50 μg LPS i.t. and were kept 24 h at 39° C.; all treatments 1 mg in 0.5 ml DMSO given 6 h post-LPS; mean SM, n=5, *p=0.03 vs DMSO #1; †p=0.16 vs DMSO #2. Lung injury was assessed by measuring total protein in the lung lavage fluid.
First, the compounds can block thrombin-induced cell permeability in human vascular endothelial cells (FIG. 8). […] Mice were pretreated i.p. with 1 mg of test compounds and then treated with […] LPS i.t. at 39° C. to induce inflammation. Lung injury was assessed by measuring total protein in the lung lavage fluid. […] All mice received 50 μg LPS i.t. and were kept 24 h at 39° C.; all treatments 1 mg in 0.5 ml DMSO given 6 h post-LPS; mean±SM, n=5, *p=0.03 vs DMSO #1; †p=0.16 vs DMSO #2. Lung injury was assessed by measuring total protein in the lung lavage fluid.

ERK2 = ERK2 (Homo sapiens, UniProt P28482); assay: DSF, binding to ERK2; settings: 10-100 μM
Sequence of ERK2 (P28482 whole entry, species assumed): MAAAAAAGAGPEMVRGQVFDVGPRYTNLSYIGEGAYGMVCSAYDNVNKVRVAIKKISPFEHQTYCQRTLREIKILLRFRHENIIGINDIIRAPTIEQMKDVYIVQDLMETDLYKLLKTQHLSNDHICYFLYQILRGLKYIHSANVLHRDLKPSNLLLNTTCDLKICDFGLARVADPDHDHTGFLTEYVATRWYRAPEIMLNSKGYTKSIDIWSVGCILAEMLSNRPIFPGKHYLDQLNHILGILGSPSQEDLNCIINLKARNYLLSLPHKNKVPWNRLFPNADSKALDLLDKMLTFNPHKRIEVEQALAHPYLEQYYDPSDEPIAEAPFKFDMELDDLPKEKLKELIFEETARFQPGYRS
Procedure: Differential Scanning Fluorimetry (DSF): Binding of CADD selected compounds to p38α and […] was tested experimentally using DSF, which evaluates changes in the target protein melting temperature (ΔTm) due to interactions with test compound. SYPRO orange (Invitrogen; diluted 1:1000 in 10 mM HEPES, 150 mM NaCl, pH 7.5) and 1 μM unphosphorylated recombinant human p38α were added to 96-well PCR plates, then 50 nM to 200 μM test compound in 100% DMSO (2% final DMSO concentration) was added, the plates mixed, sealed, centrifuged at 1000 rpm for 1 min, and melting curve performed using an Applied Biosystems real time PCR instrument. The melting point was determined from the first derivative curve. In addition, […], or target-disrupted p38α mutant are used as well.
Test compounds at 10-100 μM were screened for binding to recombinant p38α and ERK2 using DSF (FIG. 1e, Table 1).

HMVECLs [8] = assay: MTS cytotoxicity assay; assay type: cell-based, human; settings: 100 μM for 48 h
Procedure: (§2) Cytotoxicity of HMVECL exposed to 10-100 μM of each compound is analyzed by MTS assay (Promega), LDH release (Promega), and immunoblotting for activated caspase-3 (Cell Signaling).
Cytotoxicity assay: Cytotoxicity was monitored in parallel HMVEC-L monolayers established in 96-well culture plates using a colorimetric assay that measured reduction of 3-(4,5-dimethylthiazol-2-yl)-5-(3-carboxymethoxyphenyl)-2-(4-sulfophenyl)-2H-tetrazolium (MTS) to a formazan dye (CellTiter 96™; Promega; Madison, Wis.) according to the manufacturer's protocol and quantifying product formation by measuring absorption at 490 nm.

HMVECLs [9] = assay: LDH release cytotoxicity assay; assay type: cell-based, human; settings: 100 μM for 48 h
Procedure: as §2

p38α [10] = biological target: T2, p38α (Homo sapiens, UniProt Q16539); assay: Differential scanning fluorimetry (DSF), binding to p38α; settings: for stabilization of p38α (DSF): 10-100 μM; for ΔTm at 100 µM: read-out: increase of the melting temperature of p38α
T2 sequence (Q16539 whole entry): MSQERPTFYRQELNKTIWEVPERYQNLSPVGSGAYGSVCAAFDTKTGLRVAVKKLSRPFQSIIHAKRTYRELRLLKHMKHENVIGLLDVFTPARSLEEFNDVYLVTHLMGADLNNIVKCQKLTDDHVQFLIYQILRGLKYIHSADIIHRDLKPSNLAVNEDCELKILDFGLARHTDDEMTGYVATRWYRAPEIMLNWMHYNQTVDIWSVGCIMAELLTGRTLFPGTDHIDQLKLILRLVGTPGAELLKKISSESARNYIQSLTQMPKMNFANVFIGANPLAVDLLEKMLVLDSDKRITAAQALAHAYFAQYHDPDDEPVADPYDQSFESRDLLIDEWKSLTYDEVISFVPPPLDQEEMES

[11] = biological target: T3, p38α mutant (R49K/HL107-8TF/K165R) (Homo sapiens, UniProt Q16539, H107T/K165R/L108F/R49K); assay: DSF, binding to p38α mutant with 4 mutations in CADD-targeted pocket; settings: four of ten target pocket amino acids substituted
T3 construct: made in house; host or cells: E. coli BL21
T3 sequence (Q16539 whole entry R49K/H107T/L108F/K165R): as the sequence (Q16539 whole entry) above, with R49K, H107T, L108F, K165R counted along it

p38β [12] = biological target: T1, p38β; assay: STD-NMR with p38β; assay type: binding; settings: 200 μM UM101, 5 μM protein
Procedure: (§3) Saturation Transfer Difference Nuclear Magnetic Resonance (STD-NMR): A 40 mM stock solution of UM101 was made in d6-DMSO. STD-NMR samples contained 150 mM NaCl, 50 mM phosphate, pH 7,200 μM UM101, and 5 μM p38 protein in D20. Spectra were recorded on an Agilent DD2 500-MHz spectrometer equipped with a 5-mm inverse HFCN probe head at 300 K. During each transient, the protein was saturated with a series of 58 […]-shaped pulses (50 ms, 1 ms delay between pulses) using the vendor-supplied STD-ES pulse sequence, for a total saturation time of 3 seconds. The on-resonance irradiation of protein was done at 0.5 ppm and off-resonance irradiation at 30 ppm. The vendor-supplied WATERGATE pulse sequence was used to suppress the water signal in the STD spectrum. The on-resonance and off-resonance pulse sequences were subtracted internally. A total of 16,384 transients were collected for each STD experiment with a 1 second delay between acquisitions, 6000 Hz spectral width, and 1.3 second acquisition time.
(§4) Selective binding of UM101 to the CADD-targeted pocket in p38α was confirmed using Saturation Transfer Difference (STD)-NMR. The peaks in the 1D spectrum are labeled according to tentative peak assignments of UM101 in aqueous form, based on assignments of UM101 in 2 mM d6-DMSO, which were obtained from the use of 1D proton and C13 and 2D-HMBC experiments. […]

mutated p38α = biological target: T4, mutated p38α (Homo sapiens, UniProt Q16539, H107T/K165R/L108F/R49K); assay: STD-NMR with mutated p38α; assay type: binding; settings: 200 μM UM101, 5 μM protein
T4 construct: made in house; host or cells: E. coli BL21
T4 sequence (Q16539 whole entry R49K/H107T/L108F/K165R): as the sequence (Q16539 whole entry) above, with R49K, H107T, L108F, K165R counted along it
Procedure: as §3, §4

p38α [13] = biological target: T2, p38α; assay: STD-NMR with p38α; assay type: binding; design: made in house; host or cells: E. coli BL21; settings: 200 μM UM101, 5 μM protein
Procedure: as §3, §4

[14] = rheumatoid arthritis, two trials; cited from earlier work
[15] = patients at-risk for ARDS; cited from earlier work
[16] = patients with hypercholesterolemia; cited from earlier work
[17] = FIG. 9: pretreated i.p. with 1 mg, then 100 mg LPS i.t. at 39° C.
[18] = FIG. 10: 50 μg LPS i.t., 24 h at 39° C., 1 mg in 0.5 ml DMSO given 6 h post-LPS

For `Cc1ccc(-n2nc(C(C)(C)C)cc2NC(=O)Nc2ccc(OCCN3CCOCC3)c3ccccc23)cc1` [BIRB 796, doramapimod], the clinical effect [1] is listed as “no clinical effect” and the “serum CRP levels” value [1] is listed as “transiently reduced”.
With `C[S+]([O-])c1ccc(-c2nc(-c3ccncc3)c(-c3ccc(F)cc3)[nH]2)cc1` (centres unmarked) [SB203580, reference compound] the “stabilization of p38β (DSF)” value (p38β [2]) was “stabilized both p38α and p380”, the “reduction of TNFα/hyperthermia-induced permeability increase” value (HMVECL monolayers; 10 μM) was 50% and the “reduction of hyperthermia-augmented neutrophil TEM” value (HMVECLs [3]; 10 μM) was 84%. The “anisomycin-stimulated phosphorylation of MK2” value ([4]; 10 μM) was “reduced”, the “anisomycin-stimulated phosphorylation of Stat-1” value ([5]; 10 μM) was “reduced” and the “reduction of lavage neutrophil content vs. DMSO-treated controls” value ([6]; 1000 μg i.p.) was 46.8%. For the same compound, the “mice died within 24 h” value [6] was “one of six”.
With `O=C(Nc1ccc(CN2CCOCC2)cc1)c1ccc(Cl)cc1` [SF-7-009] the “protein leak into bronchoalveolar lavage fluid (total protein)” value [7, 17] was “reduced protein leak” and the “protein leak into bronchoalveolar lavage fluid (total protein)” value [7, 18] was “reduced protein leak”.
With `CN(C)c1cccc2c(S(=O)(=O)Nc3ccc(CN4CCOCC4)cc3)cccc12` [SF-7-044] the “protein leak into bronchoalveolar lavage fluid (total protein)” value [7, 18] was “reduced protein leak”.
With `O=C1c2cc(S(=O)(=O)NCCO)ccc2-c2ccc(S(=O)(=O)NCCO)cc21` [UM60, N2,N7-di(2-hydroxyethyl)-9-oxo-9H-2,7-fluorenedisulfonamide] the “stabilization of ERK2 (DSF)” value (ERK2) was “not ERK2”, the “reduction of TNFα/hyperthermia-induced permeability increase” value (HMVECL monolayers; 10 μM) was “no effect” and the “reduction of TNFα/hyperthermia-induced permeability increase” value (HMVECL monolayers; 25 μM) was “no effect”. For the same compound, the “reduction of TNFα/hyperthermia-induced permeability increase” value (HMVECL monolayers; 100 μM) was 71%, the “reduction of hyperthermia-augmented neutrophil TEM” value (HMVECLs [3]; 10 μM) was 18% and the “reduction of hyperthermia-augmented neutrophil TEM” value (HMVECLs [3]; 25 μM) was 89%. The “reduction of hyperthermia-augmented neutrophil TEM” value (HMVECLs [3]; 50 μM) was “less than baseline levels”, the “toxicity in MTS assay” value (HMVECLs [8]) was “Neither compound was toxic” and the “toxicity in LDH release assay” value (HMVECLs [9]) was “Neither compound was toxic”. The “mice died within 24 h” value [6] was “Four of six”, the “stabilization of p38α (DSF)” value (p38α [10]) was “stabilized p38α” and the ΔTm at 100 µM (p38α [10]) was roughly 0.7 °C.
For `O=C(Nc1ccc(CN2CCS(=O)(=O)CC2)cc1)c1ccc(Cl)cc1` [UM101, 4-chloro-N-{4-[(1,1-dioxo-1lambda˜6˜,4-thiazinan-4-yl)methyl]phenyl}benzamide], the “stabilization of ERK2 (DSF)” value (ERK2) was “not ERK2”, the “stabilization of p38β (DSF)” value (p38β [2]) was “only stabilized p38α” and the “binding to p38α mutant (DSF)” value [11] was “no UM101-binding”. The “interaction with p38β (STD-NMR)” value (p38β [12]) was “much weaker”, the “interaction with mutated p38α (STD-NMR)” value (mutated p38α) was “much weaker” and the “reduction of TNFα/hyperthermia-induced permeability increase” value (HMVECL monolayers; 10 μM) was 74%. The “reduction of TNFα/hyperthermia-induced permeability increase” value (HMVECL monolayers; 25 μM) was 89%, the “reduction of TNFα/hyperthermia-induced permeability increase” value (HMVECL monolayers; 100 μM) was greater than 100% and the “reduction of hyperthermia-augmented neutrophil TEM” value (HMVECLs [3]; 10 μM) was 95%. The “reduction of hyperthermia-augmented neutrophil TEM” value (HMVECLs [3]; 25 μM) was “less than baseline levels”, the “reduction of hyperthermia-augmented neutrophil TEM” value (HMVECLs [3]; 50 μM) was “less than baseline levels” and the “toxicity in MTS assay” value (HMVECLs [8]) was “Neither compound was toxic”. The “toxicity in LDH release assay” value (HMVECLs [9]) was “Neither compound was toxic”, the “anisomycin-stimulated phosphorylation of MK2” value ([4]; 50 μM) was “reduced” and the “anisomycin-stimulated phosphorylation of Stat-1” value ([5]; 50 μM) was “reduced”. The “protein leak into bronchoalveolar lavage fluid (total protein)” value [7, 17] was “reduced protein leak”, the “reduction of lavage neutrophil content vs. DMSO-treated controls” value ([6]; 100 μg i.p.) was 44.4% and the “reduction of lavage neutrophil content vs. DMSO-treated controls” value ([6]; 300 μg i.p.) was 49.5%. For the same compound, the “reduction of lavage neutrophil content vs. DMSO-treated controls” value ([6]; 500 μg i.p.) was 55.3%, the “reduction of lavage neutrophil content vs. DMSO-treated controls” value ([6]; 1000 μg i.p.) was 54% and the “survival of pretreated mice” value ([6]; 100, 300, 500 or 1000 μg i.p., 24 h) was “All sixteen UM101-pretreated mice survived”. The “interaction with p38α (STD-NMR)” value (p38α [13]) was “protons in both aromatic rings of UM101 interact with p38α”, the “stabilization of p38α (DSF)” value (p38α [10]) was “only stabilized p38α” and the ΔTm at 100 µM (p38α [10]) was roughly 0.7 °C.
For `NC(=O)c1ccc(N(C(N)=O)c2c(F)cccc2F)nc1-c1ccc(F)cc1F` [VX-702], the ACR20 symptom score [14] is listed as “small increases in proportion of treated subjects with ACR20 symptom score vs. placebo”.
In the case of `Cc1cc(F)ccc1-c1nc(NC(CO)CO)nc2c1ccc(=O)n2-c1c(F)cccc1F` [dilmapimod], the safety [15] is given as “safe at the doses administered” and the “serum C-reactive protein (CRP) levels” value [15] is given as “modestly reduced”.
In the case of `Cc1c(F)cc(C(=O)NC2CC2)cc1-c1ccc(C(=O)NCC(C)(C)C)cn1` [losmapimod], the “serum CRP” value [16] is listed as “reduced serum CRP” and the vascular relaxation [16] is listed as “improved vascular relaxation”.
